Several values for one entry are separate records, joined by “and”; a condition that tells them apart may be missing. Equal values may be shown once.

Data set [1] in a line: Stability in human plasma. The note with it: 37° C., acceptance criteria: NLT than 20% of hydrolysis after 4 hrs.
Data set [2] concerns healthy volunteers. The experiment in a line: Double-blind trial, heat pain threshold (hot water at 50° C.) after oral capsule. It counts as in vivo, human. The note with it: for % MPE (analgesia): oral, individual data, 33 45 mg, NB 35 mg, 39 68 mg. As to the method:
Double-blind, NB hydrochloride and NB-39 controlled, trial of the antinociceptive effect of oral NB-33 in healthy volunteers. […] Each week a healthy volunteer would receive a pill from the assigned set in a random fashion and take it orally. […]
(§1) Following one week of a wash out period, each volunteer repeated the protocol until all pills from the assigned set were administered. The individual data for heat pain threshold as % MPE=[(test latency−baseline latency)/(baseline latency)]×100 and for miosis as % MPE=[(test diameter−baseline diameter)/(baseline diameter)]×100 are shown in Table 2 and Table 3 respectively.
(§2) Independent samples t-test was used to compare the means of % MPE analgesia and miosis in the two pairs of samples: NB-33 and NB and NB-33 and NB-39. All analyses were made using SPSS (v.25). • Bold indicates statistical significance at α=0.05

For a further data set, the system named is Sprague-Dawley rats. The experiment in a line: Antinociceptive activity, cold ethanol tail-flick test after oral gavage. It counts as in vivo, rat.
Data set [3] has as its system healthy volunteers. The experiment in a line: Double-blind trial, miosis after oral capsule. The note with it: for % MPE (miosis): oral, individual data, 33 45 mg, NB 35 mg, 39 68 mg. It counts as in vivo, human. Here is the method:
Double-blind, NB hydrochloride and NB-39 controlled, trial of the antinociceptive effect of oral NB-33 in healthy volunteers. Each of the three healthy volunteers was assigned a set of 6 non-transparent gelatin capsules as follows: 2×NB hydrochloride (MW=393.4; 39 mg), 2×NB-33 (MW=451.6; 45 mg) and 2×NB-39 (MW=680.0; 68 mg). Each week a healthy volunteer would receive a pill from the assigned set in a random fashion and take it orally. At T=0 hr, 0.25 hr, 0.5 hr, 1 hr, 1.5 hr, 2 hr, 3 hr and 5 hr followed oral administration a heat pain threshold was measured (hot water at 50° C.) as well as miosis.
as §1, §2

Data set [4] is described as follows: Stability in the simulated gastro-intestinal fluid (sGIF). The note with it: 0.5% pepsine in 0.1N aqueous HCl, 37° C.; acceptance: NLT 80% of the derivative still intact after 4 hrs.

For the compound `CCCCCCCCCCCCCCCCCCCCCC(=O)Oc1ccc2c3c1OC1C(O)CCC4(O)C(C2)N(CC2CCC2)CCC314` (stereo not drawn) [NB-39, 3-(cyclobutylmethyl)-4a,7-dihydroxy-2,3,4,4a,5,6,7,7a-octahydro-1H-4,12-methanobenzofuro[3,2-e]isoquinolin-9-yl docosanoate], in data set [1], the Stable in plasma result is “No”. Further, the “% MPE (analgesia)” value was 0.0 % MPE in the data set on healthy volunteers [2] (0 hr (baseline)); 0.0 % MPE (2×) and 17.6 % MPE and 13.3 % MPE and 6.2 % MPE and 8.3 % MPE with healthy volunteers [2] (0.25 hr); 10.0 % MPE and 11.8 % MPE and 40.0 % MPE and 6.2 % MPE and 55.6 % MPE and 15.0 % MPE with healthy volunteers [2] (0.5 hr); 10.0 % MPE and 5.9 % MPE and 73.3 % MPE and 10.8 % MPE and 11.1 % MPE and 5.0 % MPE in the data set on healthy volunteers [2] (1 hr); 15.0 % MPE and 11.8 % MPE and 93.3 % MPE and −7.7 % MPE and 19.4 % MPE and 5.0 % MPE with healthy volunteers [2] (1.5 hr); 10.0 % MPE and 23.5 % MPE and 93.3 % MPE and 33.8 % MPE and 0.0 % MPE (2×) with healthy volunteers [2] (2 hr). Besides, the “% MPE (analgesia)” value in the data set with healthy volunteers [2] (2.5 hr) was 5.0 % MPE (2×) and 0.0 % MPE and 46.7 % MPE and −6.2 % MPE and 16.7 % MPE; in the data set with healthy volunteers [2] (3 hr) it was 10.0 % MPE and 11.8 % MPE and 40.0 % MPE and 9.2 % MPE and 0.0 % MPE (2×); with healthy volunteers [2] (5 hr) it was 0.0 % MPE (2×) and 6.7 % MPE and −9.2 % MPE and −2.8 % MPE and 5.0 % MPE. Also, the “analgesia in humans, in words” value with healthy volunteers [2] (given orally, compared with equivalent dose of Nalbuphine (NB) and NB-39) is recorded as “inferior”. Besides, the “analgesia in rats, in words” value in the data set on Sprague-Dawley rats (given orally, compared with equivalent dose of Nalbuphine (parent opioid)) is listed as “inferior”. For the same compound, the “Analgesia (rat)” value in the data set with Sprague-Dawley rats (oral gavage in sesame oil, 60 uM/kg, one dose, tail-flick at −20° C., cutoff 40 seconds) is recorded as “Inactive”. Besides, the “% MPE (miosis)” value was 0.0 % MPE in the data set with healthy volunteers [3] (0 hr (baseline)); 10.3 % MPE and 0.0 % MPE and 25.0 % MPE and 12.5 % MPE and 20.0 % MPE and 3.1 % MPE with healthy volunteers [3] (0.25 hr); 14.9 % MPE and 0.0 % MPE and 16.7 % MPE and 9.4 % MPE (2×) and 26.7 % MPE with healthy volunteers [3] (0.5 hr); 37.9 % MPE and 6.7 % MPE and 22.2 % MPE and 18.8 % MPE and 36.7 % MPE and 21.9 % MPE in the data set on healthy volunteers [3] (1 hr); 37.9 % MPE and 6.7 % MPE and 33.3 % MPE and 21.9 % MPE and 23.3 % MPE and 25.0 % MPE in the data set on healthy volunteers [3] (1.5 hr); 14.9 % MPE and 0.0 % MPE and 25.0 % MPE and 17.2 % MPE and 16.7 % MPE and 6.2 % MPE in the data set with healthy volunteers [3] (2 hr). The “% MPE (miosis)” value was 14.9 % MPE and 6.7 % MPE and 11.1 % MPE and 6.2 % MPE and 13.3 % MPE and 9.4 % MPE with healthy volunteers [3] (2.5 hr); 24.1 % MPE and 0.0 % MPE (3×) and 11.1 % MPE and 3.3 % MPE with healthy volunteers [3] (3 hr); 3.4 % MPE and 0.0 % MPE (2×) and 11.1 % MPE and 13.3 % MPE and 3.1 % MPE in the data set with healthy volunteers [3] (5 hr). Also, in the data set with healthy volunteers [3] (oral administration), the “effect on pupil dilation (miosis) in humans, in words” value is reported as “did not significantly affect”. Further, in data set [4], the “Stable in sGIF” value is recorded as “Yes”.
